According to patent publication US9580465B2, “Tissue protective peptides and peptide analogs for preventing and treating diseases and disorders associated with tissue damage” (ARAIM PHARMACEUTICALS, INC., priority 2008, dated 2017):
“Also recorded” adds a separate entry of the source. Square brackets hold non-standard residues; d marks the D form. pGlu = O=C1CC[C@@H](C(=O)O)N1

Columns and labels:
[1] = Erythropoietic and hematopoietic effects, 28 days i.v. in rabbits; type: in vivo, New Zealand White rabbits; details: 30, 90, 300 μg/kg per dose i.v. twice daily for 28 days, baseline vs. day 29
Protocol: Further the erythropoietic and hematopoietic affects of Peptide ID were evaluated in rabbits. Blood samples were taken of all rabbits prior to the initiation of the study to establish the hematological baseline for the animals. Peptide ID was administered twice daily i.v. to New Zealand White rabbits for 28 days. For this study, six males and females were assigned to groups 1 and 4, and four males and four females were assigned to groups 2 and 3. Group 1 received 0, group 2 received 30 μg (24 nmol/kg bw), group 3 received 90 μg/kg (72 nmol/kg bw); and group 4 received 300 μg/kg (240 nmol/kg bw) per dose Peptide ID in PBS by bolus i.v. administration. Blood samples to assay for hematological variables were collected on day 29.

[2] = tested on: pressure ulcer; assay: Decubitus ulcer (pressure sore) assay; type: in vivo, Sprauge-Dawley rats; details: FIG. 20
Protocol: A decubitus ulcer (pressure sore) assay was performed on 24 adult Sprauge-Dawley rats in accordance with the disclosure of Pierce et al., Selective A2A adenosine receptor activation reduces skin pressure ulcer formation and inflammation, Am J Physiol Heart Circ Physiol 281:67-74, 2001. Briefly, a ferromagnetic steel plate was implanted under a dorsal region of the rats skin. A rectangular permanent magnet was applied to the area of the skin under which the plate was implanted in order to compress the skin between the plate and the magnet. This compression reduced the flow of blood to the skin causing ischemia. The rats were subjected to a cycle of ischemia-reperfusion (2 hours ischemia with a 0.5 hour reperfusion) for a 72-hour period. […] Daily the area of the wound on each rat was measured for a period of 12 days.

[3] = tested on: partial body irradiation of 15 Gy; assay: Radiomitigating activity in a gastrointestinal screening assay; type: in vivo, C57BL/6 mice; details: 15 mice per group, 30 ug/kg subcutaneously from 24 hours, once a day, FIG. 22
Protocol: The ability of peptides useful in the current therapeutic method to mitigate the effects of a radioactive agent on the gastrointestinal system was evaluated in a murine model of radiation injury. Briefly, 30 C57BL/6 mice (male, 20-30 gm) were used in the study.
The radiation was administered to the mice using a Pantak HF320 X-ray (Agfa NDT Ltd., Reading, UK), operated at 300 kV, 10 mA. The X-ray tube has additional filtration to give a radiation quality of 2.3 mm Cu half-value layer (HVL). Mice had their head, thorax, and forelimbs shielded to protect their bone marrow and select for the GI response. The mice were restrained in a jig and positioned at a distance of 700 mm focus from the focus of the X-ray tube. Irradiation was delivered at a dose rate of 75.5 cGy/min (unshielded) and 70.0 cGy/min (shielded) for a period sufficient to expose the mice to 15 Gy of radiation.
At 24 hours following radiation, 15 of the mice were administered Peptide ID (30 ug/kg subcutaneously) and then once a day for the duration of the study and remaining 15 mice (control group) received PBS (subcutaneously) and then once a day for the duration of the study.
The mice were weighed and monitored once a day until signs of diarrhea and early euthanasia appeared, then twice a day.

[4] = tested on: 9 L gliosarcoma cells; assay: 9 L gliosarcoma implantation model, delayed treatment; type: in vivo, CD Fisher rats
Protocol: In accordance with the accordance with the protocol of Lampson et al. Cancer Res. 53:176-82:1993 described above, CD Fisher rats were implanted with 9 L gliosarcoma cells transfected with the LacZ gene by use of a Hamilton syringe. 100,000 cells in 10 microliters were injected into the right caudate.
ID with a short plasma half life, another receiving Peptide IW (pegylated form of Peptide IC) and the third group received saline. Peptides were given at a dose of 25 nmole/kg body weight. Three weeks later, the animals were sacrificed and serial 1 mm thick coronal sections cut through the brain and incubated with 5-bromo-4-chloro-3-indolyl-[beta]-D-galactopyranoside (Xgal). Tumor cells (containing the LacZ gene) metabolized Xgal into a dark blue stain, localizing the extent of tumor. High resolution digital images were obtained and the areas stained blue determined using planimetric methodology. Data is expressed as total area of tumor infiltration.

[5] = tested on: histamine; assay: Histamine induced wheal formation, persistence after single dose; type: in vivo, rats; details: FIG. 16
Protocol: The ability of Peptide ID to reduce plasma extravasation (wheal) induced by intradermal histamine administration was evaluated in rats. Animals were pre-administered Evans Blue dye (which binds tightly to albumin) to provide a visual marker of vascular leak. To determine the persistence of peptide IG activity, at various time periods after Peptide ID administration (30 μg/kg, administered intravenously), an intradermal dose of 0.12 μg histamine was administered, and the extent of dye leak quantitated by planimetry performed on digital photographs obtained 15 minutes following histamine placement, a time at which wheal surface area is greatest. Each animal was tested at only a single time point to avoid influence of histamine administration on subsequent responses.

[6] = In vivo assessment of erythropoietic activity, 28 days i.v. in rats; parameters: species or system Sprague Dawley rats; details: 0, 60, 180, 600 μg/kg per dose i.v. twice a day for 28 days; blood on day 29; FIG. 2
Protocol: To evaluate the erythropoietic activity of tissue protective peptides and peptide analogs, Peptide ID was administered intravenously twice a day to Sprague Dawley rats for 28 days. Nine male and nine female rats were assigned to groups 1-4 receiving 0, 60, 180, and 600 μg/kg per dose (0, 48, 143, and 477 nmol/kg, respectively) of Peptide ID in PBS by bolus intravenous administration from days 1-28, Blood samples to assay for hematological variables were collected on day 29. Hemoglobin concentration was determined by use of an automated analyzer (Keska Corporation).

Q: Which results are given for “UEQLERALNSS ([pGlu]EQLERALNSS-OH; also: acetate/ammonium mixed salt) [Peptide ID, first glutamine replaced with pyroglutamate]”?
A: hemoglobin concentration ([1]; FIG. 3A): no difference; also recorded: no effect; hematocrit ([1]; FIG. 3B): no difference; also recorded: no effect; platelet count ([1]; FIG. 3C): no difference; also recorded: no effect; wound (ulcer) size (area) ([2]; 30 μg/kg sc daily, compared with all groups): smallest wound size; wound (ulcer) size (area) ([2]; Peptide ID 30 μg/kg sc twice or daily, EPO daily, 12 days, versus saline): reduced the size of the wound; also recorded: better wound healing; number of mice surviving to day 20 [3]: 6 mice; tumor size (total area of tumor infiltration) ([4]; 25 nmole/kg i.p. daily starting two weeks after implantation, three weeks, FIG. 13, 14): smaller than the saline group, it was not significantly different; also recorded: reduced the size of tumor; tumor size ([4]; daily treatment begun immediately after implantation, FIG. 14): substantially smaller tumors; also recorded: reduction in size of the tumor; persistence of the suppressive effect on wheal formation ([5]; following a single dose of 30 μg/kg intravenously): up to 24 hours; wheal formation (plasma extravasation) ([5]; single dose 30 μg/kg intravenously before 0.12 μg intradermal histamine): suppress wheal formation; hemoglobin concentration [6]: no difference in any of the groups
